Experimental data as given in US9133138B2, “Use of a quinazoline compound in preparing a medicament against flaviviridae virus” (priority 2010, dated 2015).
Like-named read-outs stand apart in the source and are kept apart here.

Tests used:
[1] = test system: dengue virus serotype II; assay: BHK-DV2 replication determination (qPCR of viral genome copy number in culture supernatant); type: cell-based; settings: 96 h, BHK cells infected with DV2 (MOI=0.05), 4 days culture, viral RNA copy number in supernatant by qPCR
Protocol: (§1) The Inhibitive Activity Test of the Quinazoline Compounds of the Present Invention Against Dengue Virus Serotype II and Hepatitis C Virus of Flaviviridae:
(§2) The test results of the inhibitive activity of the quinazoline compounds of the present invention against dengue virus serotype II and Hepatitis C virus of Flaviviridae are listed in table 1.
BHK-DV2-Replication Determination:
BHK cells were inoculated on a 96-well plate. 24 hours later, DV2 viruses were added to infect for 2 h (MOI=0.05), and then viral liquid was washed away. After fresh culture medium was replaced, compounds with different concentrations were added respectively, including infection control without addition of compounds and normal MK control free from infection. After 4 days culture, the supernatant of culture fluid was sucked and centrifuged at 1000RCF for 5 min to remove the cell precipitate. Virus RNA was extracted from the supernatant by using a kit, and then reverse transcriped to be as cDNA, which was evaluated by qPCR method to determine the copy number of the virogene group in the supernatant.
(§3) The inhibitive effect of the compounds on the copy number of the viruses in the culture supernatant of the BHK infected by DV2 directly reflects the inhibitive effect of the compounds against the generation of progeny viruses. In the HCV detection, the inhibitive effect of the compounds against intracellular replication of the HCV viruses can be visually determined via fluoroscopy. Meanwhile, as the only cell model which can currently be infected in vitro, Huh7.5.1 cell model infected by HCV viruses can maximumly reproduce the infection and replication process of Hepatitis C virus in vivo.

[2] = test system: Hepatitis C virus; assay: Huh7.5.1-HCV determination (J399EM NS5A-EGFP fluorescence); type: cell-based
Description: as §1, §2
Huh7.5.1-HCV Determination:
Huh7.5.1 cell, which is currently the only cell model which can be in vitro infected by HCV viruses, can be infected by HCV viruses in vitro, and generates infective progeny viruses. J399EM is a HCV full-length mutant strain transfected by EGFP, and can generate viruses which have the same infectivity as wild-type JFH-1. Meanwhile, NS5A-EGFP fusion protein fluorescence can be observed directly in the infected cells by inserting the EGFP coding sequence into NS5A region. In this experiment, Huh7.5.1 cells were inoculated on a 96-well plate and cultured under 5% CO2 at 37° C. for 24 h. Huh7.5.1 cells were infected by J399EM virus supernatant (moi≈0.1). Meanwhile, cell control wells free from infection were included. The infected cells were washed with PBS after 8 h infection. Samples with different concentrations were added into Huh7.5.1 cells infected by J399EM viruses. Each concentration was set double wells, and control well without sample was included. The tested samples were diluted to six gradient concentrations and added respectively, and the cells were cultured for another 72 h. After the cells were treated by the samples for 72 hours, the relative intensity of fluorescence (RFU) was recorded at an excitation wavelength of 488 nm and an emission wavelength of 516 nm on a fluorescent ELISA Reader to detect the inhibition effect of the samples against HCV. The inhibition rate against HCV virus was calculated according to equation.
as §3

[3] = Hepatitis C virus, Huh-7.5.1, 72 h, read-out: Huh7.5.1-HCV (replication) IC50

For `CCCCCCCCOc1cccc2nc(N)nc(N)c12` [Yhhu-1411, 5-n-octyloxy-2,4-diaminoquinazoline], the IC50 [1] was 180 nM and the IC50 [2, 3] was 1570 nM.

In the case of `CCOc1cccc2nc(N)nc(N)c12` [Yhhu-1149, 5-ethoxy-2,4-diaminoquinazoline], the IC50 [1] is reported as 160 nM and the IC50 [2, 3] is reported as 3940 nM.

With `Nc1nc(N)c2c(OC3CCCC3)cccc2n1` [Yhhu-1056, 5-cyclopentyloxy-2,4-diaminoquinazoline] the IC50 [1] was > 25000 nM and the IC50 [2, 3] was 980 nM.

`CC(C)(C)COc1cccc2nc(N)nc(N)c12` [Yhhu-1413, 5-neooamyloxy-2,4-diaminoquinazoline] gave an IC50 [1] of 160 nM and an IC50 [2, 3] of 3750 nM.

`Nc1nc(N)c2c(OCC(F)(F)F)cccc2n1` [Yhhu-1148, 5-(2,2,2-trifluoroethoxy-2,4-diaminoquinazoline] was tested, and the IC50 [1] was 40 nM and the IC50 [2, 3] was 3120 nM.

`Nc1nc(N)c2c(OC3CCCCC3)cccc2n1` [Yhhu-1147, 5-cyclohexyloxy-2,4-diaminoquinazoline] showed an IC50 [1] of 100 nM and an IC50 [2, 3] of 4690 nM.

Work on `COc1ccccc1Oc1cccc2nc(N)nc(N)c12` [Yhhu-0969, 5-(2-methoxyphenoxy)-2,4-diaminoquinazoline] yielded an IC50 [1] of 1120 nM.

`COc1c(C)c2c(c(O)c1C/C=C(\C)CCC(=O)O)C(=O)OC2` [mycoplienolic acid, reference compound] gave an IC50 ([2]; common control compounds, HCV in vitro, read-out: half effective inhibitive concentration against HCV virus tested in vitro) of 1250 nM.

With `CC(C)(C)Oc1cccc2nc(N)nc(N)c12` [Yhhu-1036, 5-tert-butoxy-2,4-diaminoquinazoline] the IC50 [1] was 9 nM and the IC50 [2, 3] was 1230 nM.

`COc1cccc2nc(N)nc(N)c12` [Yhhu-0967, 5-methoxy-2,4-diaminoquinazoline] showed an IC50 [1] of 760 nM and an IC50 [2, 3] of 5730 nM.

`Nc1nc(N)c2c(Oc3ccccc3)cccc2n1` [Yhhu-0970, 5-phenoxy-2,4-diaminoquinazoline] showed an IC50 [1] of 430 nM and an IC50 [2, 3] of 3180 nM.

With `CCCCOc1cccc2nc(N)nc(N)c12` [Yhhu-1145, 5-n-butoxy-2,4-diaminoquinazoline] the IC50 [1] was 110 nM and the IC50 [2, 3] was 2340 nM.

`CC(C)(C)c1ccc(Oc2cccc3nc(N)nc(N)c23)cc1` [Yhhu-1035, 5-(4-tert-butylphenoxy)-2,4-diaminoquinazoline] gave an IC50 [1] of 1970 nM and an IC50 [2, 3] of 4750 nM.

`Nc1nc(N)c2c(OCc3cccnc3)cccc2n1` [Yhhu-1151, 5-(3-pyridinemethoxy)-2,4-diaminoquinazoline] gave an IC50 [1] of 430 nM and an IC50 [2, 3] of 7840 nM.

In the case of `Nc1nc(N)c2c(OC34CC5CC(CC(C5)C3)C4)cccc2n1` [Yhhu-1146, 5 (1-adamantyloxy)-2,4-diaminoquinazoline], the IC50 [1] is reported as > 25000 nM and the IC50 [2, 3] is reported as 5130 nM.

In the case of `Nc1nc(N)c2c(OCCN3CCCC3)cccc2n1` [Yhhu-1041, 5-(2-(1-pyrrolidinyl)ethoxy)-2,4-diaminoquinazoline], the IC50 [1] is reported as 7130 nM and the IC50 [2, 3] is reported as 12300 nM.

`Nc1nc(N)c2c(Oc3cccc(Cl)c3)cccc2n1` [Yhhu-1053, 5-(3-chlorophenoxy)-2,4-diamino quinazoline] showed an IC50 [1] of 380 nM and an IC50 [2, 3] of 790 nM.

`NC(=O)c1ncn([C@@H]2O[C@H](CO)[C@@H](O)[C@H]2O)n1` [Ribavirin, reference compound] gave an IC50 ([2]; Hepatitis C virus, read-out: half effective inhibitive concentration against HCV virus tested in vitro) of 20000 nM.

`COc1ccc(Oc2cccc3nc(N)nc(N)c23)cc1` [Yhhu-1152, 5-(4-methoxyphenoxy)-2,4-diaminoquinazoline] gave an IC50 [1] of 3110 nM and an IC50 [2, 3] of 24700 nM.

Work on `Nc1nc(N)c2c(OCc3ccccc3)cccc2n1` [Yhhu-1046, 5-benzyloxy-2,4-diaminoquinazoline] yielded an IC50 [1] of 340 nM and an IC50 [2, 3] of 2360 nM.

`CC(C)CCOc1cccc2nc(N)nc(N)c12` [Yhhu-1412, 5-isoamyloxy-2,4-diaminoquinazoline] showed an IC50 [1] of 100 nM and an IC50 [2, 3] of 1740 nM.

`Nc1ccc(Oc2cccc3nc(N)nc(N)c23)cc1` [Yhhu-1150, 5-(4-aminophenoxy)-2,4-diaminoquinazoline] was tested, and the IC50 [1] was 490 nM and the IC50 [2, 3] was 7250 nM.

For `Nc1nc(N)c2c(Oc3ccc(Cl)cc3)cccc2n1` [Yhhu-0968, 5-(4-chlorophenoxy)-2,4-diamino quinazoline], the IC50 [1] was > 5000 nM.
